In brackets after ≈: the same amount, converted by molar mass. Where two headings read alike, the source gives them in different places.
Key:
[1] = test system: P388 leukemia cells; assay: Cytotoxic assay with P388 leukemia cells; type: cell-based, mouse
Description: The tubulin polymerization compounds can also be tested for their ability to inhibit tumor cell growth.

[2] = test system: SW1736; assay: Human cancer cell line studies, SW1736; type: cell-based; details: Thyroid ca SW1736
Procedure: (§1) The assay used is described in Monks et al. Briefly, the cell suspensions, diluted according to tho particular cell type and the expected target cell density (5,000-40,000 cells per well based on cell growth characteristics), were added by pipet (100 μl) to 96-well microtiter plates. Inoculates were allowed a preincubation time of 24-28 hours at 37° C. for stabilization. Incubation with the inhibitor compounds lasted for 48 hours in 5% CO2 atmosphere and 100% humidity. Determination of cell growth was done by in situ fixation of cells, followed by staining with a protein-binding dye, sulforhodamine B (SRB), which binds to the basic amino acids of cellular macromolecules. The solubilized stain was measured spectrophotometrically.

[3] = test system: NCI-H460; assay: Growth inhibitory activity, human cancer cell line NCI-H460 (SRB); type: cell-based; details: Lung-NSC NCI-H460
Procedure: as §1

[4] = test system: SK-N-SH; assay: Human cancer cell line studies, SK-N-SH; type: cell-based; details: Neuroblast SK-N-SH
Procedure: as §1

[5] = test system: FADU; assay: Human cancer cell line studies, FADU; type: cell-based; details: Pharynx-sqam FADU
Procedure: as §1

[6] = test system: BXPC-3; assay: Human cancer cell line studies, BXPC-3; type: cell-based; details: Pancreas adn BXPC-3
Procedure: as §1

[7] = test system: T1, tubulin; assay: Tubulin polymerization assay; type: biochemical, bovine; details: purified tubulin […], GTP-induced, 350 nm; final steady-state number for compounds other than 1A and 10A; read-out: IC50 for inhibition of tubulin polymerization
T1 construct: Purified tubulin is obtained from bovine brain cells as described in Hamel and Lin
Procedure: The ability of the various above described compounds to inhibit tubulin polymerization can be determined by in vitro assay. A suitable assay system is that described by Bai et al. A method for purifying tubulin from bovine brain cells is described by Hamel and Lin.
IC50 values for tubulin polymerization were determined according to the procedure described in Bai et al. Purified tubulin is obtained from bovine brain cells as described in Hamel and Lin. Various amounts of inhibitor were preincubated for 15 minutes at 37° C. with purified tubulin. After the incubation period, the reaction was cooled and GTP was added to induce tubulin polymerization. Polymerization was then monitored in a Gilford spectrophotometer at 350 nm. The final reaction mixtures (0.25 ml) contained 1.5 mg/ml tubulin, 0.6 mg/ml microtubule-associated proteins (MAPs), 0.5 mM GTP, 0.5 mM MgCl2, 4% DMSO and 0.1 M 4-morpholineethanesulfonate buffer (MES, pH 6.4). […]

[8] = test system: DU-145; assay: Human cancer cell line studies, DU-145; type: cell-based; details: Prostate DU-145
Procedure: as §1

[9] = test system: RPMI-7951; assay: Human cancer cell line studies, RPMI-7951; type: cell-based; details: Melanoma RPMI-7951
Procedure: as §1, with “3-(3′,4′,5′-Trimethoxybenzoyl)-2-(4′-methoxyphenyl)-6-methoxybenzo[b]-thiophene was evaluated in terms of growth inhibitory activity against several human cancer cell lines, including ovarian CNS, renal, lung, colon and melanoma lines. The assay” for “The assay”

[10] = test system: U251; assay: Human cancer cell line studies, U251; type: cell-based; details: CNS U251
Procedure: as §1, with “3-(3′,4′,5′-Trimethoxybenzoyl)-2-(4′-methoxyphenyl)-6-methoxybenzo[b]-thiophene was evaluated in terms of growth inhibitory activity against several human cancer cell lines, including ovarian CNS, renal, lung, colon and melanoma lines. The assay” for “The assay”

[11] = P388 mouse leukemia, dosage required to inhibit 50% of cell growth, read-out: ED50 (the source's name)
[12] = Homo sapiens, SW-1736, read-out: GI50
[13] = Mus musculus, P388, read-out: ED50
[14] = Homo sapiens, U-251, read-out: GI50
[15] = P388 mouse leukemia, dosage required to inhibit 50% of cell growth

Structure (SMILES) | IC50 [1, 11] | GI50 [2, 12] | GI50 ([3]; Homo sapiens, read-out: GI50) | GI50 ([4]; Homo sapiens, read-out: GI50) | GI50 ([5]; Homo sapiens, read-out: GI50) | GI50 ([6]; Homo sapiens, read-out: GI50) | IC50 [7] | GI50 ([8]; Homo sapiens, read-out: GI50) | GI50 ([9]; Homo sapiens, read-out: GI50) | GI50 [10, 14] | further results
COc1ccc(-c2sc3cc(OC)ccc3c2C(=O)c2ccc(OC)c(OC)c2)cc1 [Compound 4A, 3-(3′,4′-dimethoxybenzoyl)-2-(4′-methoxyphenyl)-6-methoxybenzo[b]thiophene] | > 10 µg/mL | > 10 µg/mL | 4.6 µg/mL (≈ 10.6 µM) | 3.2 µg/mL (≈ 7.36 µM) | 4.7 µg/mL (≈ 10.8 µM) | 5.2 µg/mL (≈ 12 µM) | > 40 µM | > 10 µg/mL |  |  | 
COc1ccc(-c2sc3cc(OC)ccc3c2Oc2cc(OC)c(OC)c(OC)c2)cc1 [Compound 23B, 3-(3′,4′,5′-trimethoxyphenoxy)-2-(4′-methoxyphenyl)-6-methoxybenzo[b]thiophene] |  | 0.73 µg/mL (≈ 1.61 µM) | 0.31 µg/mL (≈ 0.685 µM) | 0.063 µg/mL (≈ 0.139 µM) | 0.098 µg/mL (≈ 0.217 µM) | 0.23 µg/mL (≈ 0.508 µM) | 1.4 µM | 0.42 µg/mL (≈ 0.928 µM) |  |  | IC50 [1, 13]: 3.09 µg/mL (≈ 6.83 µM)
CCOc1cc(C(=O)c2c(-c3ccc(OC)cc3)sc3cc(OC)ccc23)cc(OCC)c1OCC [Compound 7A, 3-(3′,4′,5′-triethoxybenzoyl)-2-(4′-methoxyphenyl)-6-methoxybenzo[b]thiophene] | > 100 µg/mL |  | > 10 µg/mL |  | > 10 µg/mL | > 10 µg/mL |  | > 10 µg/mL | > 10 µg/mL | > 10 µg/mL | 
COc1ccc(-c2sc3cc(OC)ccc3c2C(=O)Cc2cc(OC)c(OC)c(OC)c2)cc1 [Compound 21A] |  |  |  |  |  |  |  |  |  |  | ED50 [1, 15]: >10 µg/mL; GI50 [9]: >10 µg/mL; GI50 [3]: >10 µg/mL; GI50 [5]: 7.9 µg/mL (≈ 16.5 µM); GI50 [6]: 9.8 µg/mL (≈ 20.5 µM); GI50 [10]: >10 µg/mL; GI50 [8]: >10 µg/mL
COc1ccc(C(=O)c2c(-c3ccc(OC)cc3)sc3cc(OC)ccc23)cc1 [Compound 5A, 3-(4′-methoxybenzoyl)-2-(4′-methoxyphenyl)-6-methoxybenzo[b]thiophene] | > 100 µg/mL |  | > 10 µg/mL |  | > 10 µg/mL | 8.9 µg/mL (≈ 22 µM) |  | > 10 µg/mL | > 10 µg/mL | > 10 µg/mL | 
COc1ccc(-c2sc3cc(OC)ccc3c2C(=O)CCc2cc(OC)c(OC)c(OC)c2)cc1 [Compound 8A, 3-[3′-(3′,4′,5′-trimethoxyphenyl)propionyl]-2-(4′-methoxyphenyl)-6-methoxybenzo[b]thiophene] |  |  |  |  |  |  |  |  |  |  | ED50 [1, 15]: >10 µg/mL; GI50 [9]: >10 µg/mL; GI50 [3]: 3.8 µg/mL (≈ 7.71 µM); GI50 [5]: 9.1 µg/mL (≈ 18.5 µM); GI50 [6]: >10 µg/mL; GI50 [10]: 4.5 µg/mL (≈ 9.14 µM); GI50 [8]: >10 µg/mL
COc1ccc(-c2sc3cc(OC)ccc3c2C(=O)c2cc(OC)c(OC)c(OC)c2)cc1 [Compound 1A, 3-(3′,4′,5′-trimethoxybenzoyl)-2-(4′-methoxyphenyl)-6-methoxybenzo[b]thiophene] |  |  |  |  |  |  |  |  |  |  | melting point: 131 to 133 °C
COc1ccc(/C=C\c2cc(OC)c(OC)c(OC)c2)cc1[N+](=O)[O-] [Compound 31E, (Z)-1-(4″-methoxy-3″-nitrophenyl)-2-(3′,4′,5′-trimethoxyphenyl)ethene] |  |  |  |  |  |  |  |  |  |  | ED50 [1, 15]: 4.0 µg/mL (≈ 11.6 µM); GI50 [2]: 0.056 µg/mL (≈ 0.162 µM); GI50 [3]: 0.043 µg/mL (≈ 0.125 µM); GI50 [4]: >10 µg/mL; GI50 [5]: 2.6 µg/mL (≈ 7.53 µM); GI50 [6]: 0.037 µg/mL (≈ 0.107 µM); GI50 [8]: 0.046 µg/mL (≈ 0.133 µM)
CCOc1ccc(-c2sc3cc(OCC)ccc3c2C(=O)c2cc(OCC)c(OCC)c(OCC)c2)cc1 [Compound 9A, 3-(3′,4′,5′-triethoxybenzoyl)-2-(4′-ethoxyphenyl)-6-ethoxybenzo[b]thiophene] | > 10 µg/mL |  | > 10 µg/mL |  | > 10 µg/mL | > 10 µg/mL |  | > 10 µg/mL | > 10 µg/mL | > 10 µg/mL | 
CCOc1ccc(C(=O)c2c(-c3ccc(OC)cc3)sc3cc(OC)ccc23)cc1 [Compound 6A, 3-(4′-ethoxybenzoyl)-2-(4′-methoxyphenyl)-6-methoxybenzo[b]thiophene] | > 100 µg/mL |  | 2.4 µg/mL (≈ 5.73 µM) |  | 0.48 µg/mL (≈ 1.15 µM) | 0.65 µg/mL (≈ 1.55 µM) |  | 3.9 µg/mL (≈ 9.32 µM) | 3.2 µg/mL (≈ 7.65 µM) | 0.43 µg/mL (≈ 1.03 µM) | 
COc1ccc(-c2sc3cc(OC)ccc3c2C(=O)Cc2ccccc2)cc1 [Compound 20A, 3-(phenylacetyl)-2-(4′-methoxyphenyl)-6-methoxybenzo[b]thiophene] | > 10 µg/mL |  | > 10 µg/mL |  | 9.2 µg/mL (≈ 23.7 µM) | > 10 µg/mL |  | > 10 µg/mL | > 10 µg/mL | > 10 µg/mL | 
COc1ccc(/C=C\c2cc(OC)c(OC)c(OC)c2)cc1N=[N+]=[N-] [Compound 34E, (Z)-1-(3′azido-4′-methoxyphenyl)-2-(3″,4″,5″-trimethoxyphenyl)ethene] |  | 1.2 µg/mL (≈ 3.52 µM) | 0.0056 µg/mL (≈ 0.0164 µM) | 0.0033 µg/mL (≈ 0.00967 µM) | 0.0076 µg/mL (≈ 0.0223 µM) | 0.005 µg/mL (≈ 0.0146 µM) | 1.3 µM | 0.0091 µg/mL (≈ 0.0267 µM) |  |  | IC50 [1, 13]: 0.0384 µg/mL (≈ 0.112 µM)
COc1cc(/C=C\c2cc(OC)c(OC)c(OC)c2)ccc1[N+](=O)[O-] [Compound 27E, (Z)-1-(3′-methoxy-4′-nitrophenyl)-2-(3″,4″,5″-trimethoxyphenyl) ethene] |  | 3.3 µg/mL (≈ 9.56 µM) | 2.3 µg/mL (≈ 6.66 µM) | 2.1 µg/mL (≈ 6.08 µM) | 1.1 µg/mL (≈ 3.19 µM) | 1.9 µg/mL (≈ 5.5 µM) | > 40 µM | 2.6 µg/mL (≈ 7.53 µM) |  |  | 
COc1ccc(-c2sc3ccccc3c2C(=O)c2cc(OC)c(OC)c(OC)c2)cc1 [Compound 16A, 3-(3′,4′,5′-trimethoxybenzoyl)-2-(4′-methoxyphenyl)-benzo[b]thiophene] |  | 4.6 µg/mL (≈ 10.6 µM) | 2.7 µg/mL (≈ 6.21 µM) | 0.83 µg/mL (≈ 1.91 µM) | 0.63 µg/mL (≈ 1.45 µM) | 1.7 µg/mL (≈ 3.91 µM) | > 40 µM | 4.8 µg/mL (≈ 11 µM) |  |  | 

Reference: patent US20010034454A1, “Description anti-mitotic agents which inhibit tubulin polymerization” (BYLOR UNIVERSITY AND ARIZONA DESEASE CONTROL RESEARCH …, priority 1998, published 2001)
